pIC50: −log10 of the molar value.
Molecular target: T1, protein phosphatase-1 catalytic subunit (PP1c) (Oryctolagus cuniculus, UniProt P62139)
T1 construct: gene PPP1CA; catalytic subunit
Assay: colorimetric pNPP phosphatase inhibition assay, absorbance at […] nm, PP1 […]
Format: biochemical

T1 sequence (P62139 2-330): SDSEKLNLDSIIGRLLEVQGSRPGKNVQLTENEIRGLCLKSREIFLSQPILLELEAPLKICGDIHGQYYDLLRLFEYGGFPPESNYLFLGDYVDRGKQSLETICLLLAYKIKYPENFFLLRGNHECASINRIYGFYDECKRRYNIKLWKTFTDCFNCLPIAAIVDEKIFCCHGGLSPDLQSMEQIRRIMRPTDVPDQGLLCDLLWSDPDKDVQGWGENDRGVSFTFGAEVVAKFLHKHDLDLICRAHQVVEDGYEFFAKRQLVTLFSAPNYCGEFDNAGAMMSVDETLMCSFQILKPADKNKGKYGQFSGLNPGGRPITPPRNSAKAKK

With `C=C1[C@@H](O)[C@@H]2O[C@]3(CC[C@H](/C=C/[C@@H](C)[C@@H]4CC(C)=C[C@@]5(O[C@H](C[C@@](C)(O)C(=O)O)CC[C@H]5O)O4)O3)CC[C@H]2O[C@@H]1[C@@H](O)C[C@H](C)[C@H]1O[C@@]2(CCCCO2)CC[C@H]1C` [OA, okadaic acid] the pIC50 was 5.93.

From PMC7298613, “Degradation of okadaic acid in seawater by UV/TiO2 photocatalysis – Proof of concept” (The Science of the Total Environment, 2020)
